Laboratory results as given in patent US20240122865A1, “Methods of Protecting RNA” (Pfizer Inc., priority 2021, published 2024).
pEC50: −log10 of the molar value.

Tests used:
Assay type in all cases: biochemical, Trichoderma atroviride
[1] = molecular target: Chi18 model RNA; assay: Droplet Digital Polymerase Chain Reaction (ddPCR) Assay, Chi18; conditions: percent protection, pH 11.0, 30° C., 16 hours, n = 2
Outline: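 Chi18 (25 fg/μL) or FgenL (10 fg/μL) RNA at pH 11.0 incubated 16 h with amino acids (10-point half-log series, ~300 mM top stock in CAPS), at 30° C or 44° C respectively. Intact RNA reverse-transcribed, ddPCR 5′-positive droplet fraction taken as protection; EC50 from four-parameter logistic fit.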

[2] = tested on: FgenL model RNA; assay: TapeStation Assay, FgenL model RNA; design: Conc. FgenL#1 / Conc. FgenL#2: unit not given here; conditions: for % Control N = 1 / % Control N = 2 / % Control Average: FgenL RNA, 20 mM amino acids, 50 mM CAPS pH 11, 50° C. 15 min; for % Control N = 1 / % Control N = 2: vs Time 0; for % Control Average: vs Time 0, Avg N=2; for Conc. FgenL#1 / Conc. FgenL#2: intact FgenL RNA after 15 min at 50° C.; for Conc. FgenL#1: 20 mM amino acids in 50 mM CAPS pH 11, run #1; for Conc. FgenL#2: 20 mM amino acids in 50 mM CAPS pH 11, run #2
Outline: (§1)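 Chi18 or FgenL model RNA at 50 ng/μL in 50 mM CAPS pH 11 was mixed with amino acids (stocks in CAPS, readjusted to >pH 11) and heated at 50° C for 0 or 15 minutes; time-0 samples stayed on ice. Intact RNA was measured by capillary electrophoresis with optical detection and compared with a no-degradation baseline.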

[3] = tested on: FgenL mRNA construct; assay: Size Exclusion Base Hydrolysis Degradation Assay, FgenL; conditions: 25 mM amino acid; for T0 R1 peak area at 250 nm: FgenL 0.1 mg/mL, 50 mM CAPS, T=0, replicate 1; for T2 Avg, peak area as percentage of T=0 / T2 R1 peak area at 250 nm / T10 Avg, peak area as percentage of T=0 / T10 R1 peak area at 250 nm / T24 Avg, peak area as percentage of T=0 / T24 R1 peak area at 250 nm / T0 Avg, peak area as percentage of T=0: FgenL; for T2 Avg, peak area as percentage of T=0 / T2 R1 peak area at 250 nm / T10 Avg, peak area as percentage of T=0 / T10 R1 peak area at 250 nm / T24 Avg, peak area as percentage of T=0 / T24 R1 peak area at 250 nm: 50 mM CAPS pH 11, room temperature; for T2 Avg, peak area as percentage of T=0 / T2 R1 peak area at 250 nm: 2 hrs; for T2 R1 peak area at 250 nm / T10 R1 peak area at 250 nm / T24 R1 peak area at 250 nm: replicate 1; for T10 Avg, peak area as percentage of T=0 / T10 R1 peak area at 250 nm: 10 hrs; for T24 Avg, peak area as percentage of T=0 / T24 R1 peak area at 250 nm: 24 hrs; for T0 Avg, peak area as percentage of T=0: T=0 (reference)
Outline: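 mRNA (diluted to 1.0 mg/mL) preincubated 1 h with amino acid, then brought to pH 11 with CAPS and NaOH at room temperature. Intact mRNA quantified by size-exclusion UPLC, peak area at 250 nm in the T=0 elution window, expressed as percentage of T=0 at 2, 10 and 24 hrs.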

[4] = tested on: Chi18 model RNA; assay: TapeStation Assay, Chi18 model RNA; design: Conc. chi18#1 / Conc. chi18#2: unit not given here; conditions: for % Control N = 1 / % Control N = 2 / % Control Avg.: Chi18 RNA, 20 mM amino acids, 50 mM CAPS pH 11, 50° C. 15 min; for % Control N = 1 / % Control N = 2: vs Time 0; for % Control Avg.: vs Time 0, Avg N=2; for Conc. chi18#1: 20 mM amino acids in 50 mM CAPS pH 11, run #1
Outline: as §1

[5] = intact Chi18 RNA after 15 min at 50° C.

SMILES	pEC50 [1]	% Control N = 1 [2] [%]	% Control N = 2 [2] [%]	% Control Average [2] [%]	Conc. FgenL#1 [2]	Conc. FgenL#2 [2]	T0 R1 peak area at 250 nm [3]	T2 Avg, peak area as percentage of T=0 [3] [%]	T2 R1 peak area at 250 nm [3]	T10 Avg, peak area as percentage of T=0 [3] [%]	T10 R1 peak area at 250 nm [3]	T24 Avg, peak area as percentage of T=0 [3] [%]	T24 R1 peak area at 250 nm [3]	T0 Avg, peak area as percentage of T=0 [3] [%]	% Control N = 1 [4] [%]	% Control N = 2 [4] [%]	% Control Avg. [4] [%]	Conc. chi18#1 [4, 5]	Conc. chi18#2 ([4]; intact Chi18 RNA after 15 min at 50° C., 20 mM amino acids in 50 mM CAPS pH 11, run #2)
C[C@@H](O)[C@H](N)C(=O)O [Threonine]	< 1.52	49.3	34.6	41.9	17	12	17711	47.3	8436	2.6	904	0.0	0	100.0	51.4	40.8	46.1	27.4	21.6
N[C@@H](Cc1c[nH]c2ccccc12)C(=O)O [Tryptophan]	< 1.52	3.5	1.5	2.5	1.21	0.51	15191	30.2	4991	0.0	0	0.0	0	100.0	2.9	2.9	2.9	1.57	–
N[C@@H](Cc1ccc(O)cc1)C(=O)O [Tyrosine]	< 1.52	33.9	21.9	27.9	11.7	7.59	22082	64.7	13039	15.0	1912	5.6	912	100.0	31.9	31.9	31.9	17	–
CC(C)[C@H](N)C(=O)O [Valine]	< 1.52	25.4	18.4	21.9	8.77	6.38	17745	22.8	4305	0.0	0	0.0	0	100.0	32.5	32.5	32.5	17.3	–
